Laboratory results published in ChEMBL document CHEMBL3885881, “DrugMatrix”.

Species on record: Rattus norvegicus
Experiment: DrugMatrix - Regimen: Daily Repeat
Format: toxicity, organism-based, Sprague-Dawley
Set-up: regimen Daily Repeat, gender Male, age 6-8 weeks
Details: in vivo, po, route oral GAVAGE, […]; for ABSOLUTE BASOPHIL / ABSOLUTE EOSINOPHIL / ABSOLUTE LYMPHOCYTE / ABSOLUTE MONOCYTE / ABSOLUTE SEGMENTED NEUTROPHIL / BASOPHIL / EOSINOPHIL / ERYTHROCYTE COUNT / HEMATOCRIT / HEMOGLOBIN / LEUKOCYTE COUNT / LYMPHOCYTE / MEAN CORPUSCULAR HEMOGLOBIN / MEAN CORPUSCULAR HEMOGLOBIN CONCENTRATION / MEAN CORPUSCULAR VOLUME / MONOCYTE / NEUTROPHIL / NUCLEATED RED BLOOD CELLS / PLATELET COUNT: tissue Blood; for ALANINE AMINOTRANSFERASE / ALBUMIN / ALKALINE PHOSPHATASE / ASPARTATE AMINOTRANSFERASE / BLOOD UREA NITROGEN / CARBON DIOXIDE / CHLORIDE / CHOLESTEROL / CREATINE PHOSPHOKINASE / CREATININE / GLUCOSE / LACTATE DEHYDROGENASE / LIPASE / PHOSPHORUS / POTASSIUM / SODIUM / TOTAL BILIRUBIN / TOTAL PROTEIN / URIC ACID: tissue Plasma
[1] = 5 mg/kg, 120 h, dose level Low, time 5 day
[2] = 94 mg/kg, 72 h, dose level High, time 3 day
[3] = 94 mg/kg, 120 h, dose level High, time 5 day

Structure (SMILES): CC(C)n1c(/C=C/C(O)CC(O)CC(=O)O)c(-c2ccc(F)cc2)c2ccccc21 (centres undefined) [FLUVASTATIN]
- ABSOLUTE BASOPHIL [1]: 0 CELLS/uL
- ABSOLUTE EOSINOPHIL [1]: 0 CELLS/uL
- ABSOLUTE LYMPHOCYTE [1]: 8489.33 CELLS/uL
- ABSOLUTE MONOCYTE [1]: 28 CELLS/uL
- ABSOLUTE SEGMENTED NEUTROPHIL [1]: 816 CELLS/uL
- BASOPHIL [1]: 0%
- EOSINOPHIL [1]: 0%
- ERYTHROCYTE COUNT [1]: 5.73 x10E6/uL
- HEMATOCRIT [1]: 34.77%
- HEMOGLOBIN [1]: 13.73 G/DL
- LEUKOCYTE COUNT [1]: 9.33 x10E3/uL
- LYMPHOCYTE [1]: 90.67%
- MEAN CORPUSCULAR HEMOGLOBIN [1]: 24 pg
- MEAN CORPUSCULAR HEMOGLOBIN CONCENTRATION [1]: 39.5 G/DL
- MEAN CORPUSCULAR VOLUME [1]: 60.73 fL
- MONOCYTE [1]: 0.33%
- NEUTROPHIL [1]: 9%
- NUCLEATED RED BLOOD CELLS [1]: 0 /100WBC
- PLATELET COUNT [1]: 1186.33 x10E3/uL
- ALANINE AMINOTRANSFERASE [1]: 89.67 u/L
- ALBUMIN [1]: 4.33 G/DL
- ALKALINE PHOSPHATASE [1]: 440.33 u/L
- ASPARTATE AMINOTRANSFERASE [1]: 141.33 u/L
- BLOOD UREA NITROGEN [1]: 13 mg/dL
- CARBON DIOXIDE [1]: 25.67 mmol/L
- CHLORIDE [1]: 103 MEQ/L
- CHOLESTEROL [1]: 59.67 mg/dL
- CREATINE PHOSPHOKINASE [1]: 300.67 u/L
- CREATININE [1]: 0.19 mg/dL
- GLUCOSE [1]: 158.33 mg/dL
- LACTATE DEHYDROGENASE [1]: 263.33 u/L
- LIPASE [1]: 51.67 u/L
- PHOSPHORUS [1]: 9.2 mg/dL
- POTASSIUM [1]: 5.92 MEQ/L
- SODIUM [1]: 148.8 MEQ/L
- TOTAL BILIRUBIN [1]: 0.17 mg/dL
- TOTAL PROTEIN [1]: 5.6 G/DL
- URIC ACID [1]: 0.77 mg/dL
- ABSOLUTE BASOPHIL [2]: 0 CELLS/uL
- ABSOLUTE EOSINOPHIL [2]: 39 CELLS/uL
- ABSOLUTE LYMPHOCYTE [2]: 7651.67 CELLS/uL
- ABSOLUTE MONOCYTE [2]: 155.33 CELLS/uL
- ABSOLUTE SEGMENTED NEUTROPHIL [2]: 2554 CELLS/uL
- BASOPHIL [2]: 0%
- EOSINOPHIL [2]: 0.33%
- ERYTHROCYTE COUNT [2]: 5.55 x10E6/uL
- HEMATOCRIT [2]: 35.43%
- HEMOGLOBIN [2]: 13.93 G/DL
- LEUKOCYTE COUNT [2]: 10.4 x10E3/uL
- LYMPHOCYTE [2]: 73.33%
- MEAN CORPUSCULAR HEMOGLOBIN [2]: 25.1 pg
- MEAN CORPUSCULAR HEMOGLOBIN CONCENTRATION [2]: 39.33 G/DL
- MEAN CORPUSCULAR VOLUME [2]: 63.83 fL
- MONOCYTE [2]: 1.33%
- NEUTROPHIL [2]: 25%
- NUCLEATED RED BLOOD CELLS [2]: 0 /100WBC
- PLATELET COUNT [2]: 1394.33 x10E3/uL
- ALANINE AMINOTRANSFERASE [2]: 258.33 u/L
- ALBUMIN [2]: 4.47 G/DL
- ALKALINE PHOSPHATASE [2]: 597.67 u/L
- ASPARTATE AMINOTRANSFERASE [2]: 446.67 u/L
- BLOOD UREA NITROGEN [2]: 15 mg/dL
- CARBON DIOXIDE [2]: 34.67 mmol/L
- CHLORIDE [2]: 95.67 MEQ/L
- CHOLESTEROL [2]: 55.67 mg/dL
- CREATINE PHOSPHOKINASE [2]: 534 u/L
- CREATININE [2]: 0.16 mg/dL
- GLUCOSE [2]: 136.33 mg/dL
- LACTATE DEHYDROGENASE [2]: 400.33 u/L
- LIPASE [2]: 10 u/L
- PHOSPHORUS [2]: 11.83 mg/dL
- POTASSIUM [2]: 5.75 MEQ/L
- SODIUM [2]: 143.43 MEQ/L
- TOTAL BILIRUBIN [2]: 0.2 mg/dL
- TOTAL PROTEIN [2]: 6.1 G/DL
- URIC ACID [2]: 0.7 mg/dL
- ABSOLUTE BASOPHIL [3]: 0 CELLS/uL
- ABSOLUTE EOSINOPHIL [3]: 0 CELLS/uL
- ABSOLUTE LYMPHOCYTE [3]: 6138.33 CELLS/uL
- ABSOLUTE MONOCYTE [3]: 139 CELLS/uL
- ABSOLUTE SEGMENTED NEUTROPHIL [3]: 2022.67 CELLS/uL
- BASOPHIL [3]: 0%
- EOSINOPHIL [3]: 0%
- ERYTHROCYTE COUNT [3]: 6.14 x10E6/uL
- HEMATOCRIT [3]: 37.2%
- HEMOGLOBIN [3]: 14.47 G/DL
- LEUKOCYTE COUNT [3]: 8.3 x10E3/uL
- LYMPHOCYTE [3]: 74%
- MEAN CORPUSCULAR HEMOGLOBIN [3]: 23.6 pg
- MEAN CORPUSCULAR HEMOGLOBIN CONCENTRATION [3]: 38.9 G/DL
- MEAN CORPUSCULAR VOLUME [3]: 60.67 fL
- MONOCYTE [3]: 1.67%
- NEUTROPHIL [3]: 24.33%
- NUCLEATED RED BLOOD CELLS [3]: 0 /100WBC
- PLATELET COUNT [3]: 1488.67 x10E3/uL
- ALANINE AMINOTRANSFERASE [3]: 191 u/L
- ALBUMIN [3]: 4.5 G/DL
- ALKALINE PHOSPHATASE [3]: 802.67 u/L
- ASPARTATE AMINOTRANSFERASE [3]: 387.67 u/L
- BLOOD UREA NITROGEN [3]: 11.67 mg/dL
- CARBON DIOXIDE [3]: 29.33 mmol/L
- CHLORIDE [3]: 100 MEQ/L
- CHOLESTEROL [3]: 53.33 mg/dL
- CREATINE PHOSPHOKINASE [3]: 612.33 u/L
- CREATININE [3]: 0.13 mg/dL
- GLUCOSE [3]: 134.33 mg/dL
- LACTATE DEHYDROGENASE [3]: 263.33 u/L
- LIPASE [3]: 38.67 u/L
- PHOSPHORUS [3]: 7.8 mg/dL
- POTASSIUM [3]: 5.55 MEQ/L
- SODIUM [3]: 149.05 MEQ/L
- TOTAL BILIRUBIN [3]: 0.1 mg/dL
- TOTAL PROTEIN [3]: 6.03 G/DL
- URIC ACID [3]: 0.43 mg/dL
